Laboratory results as given in the NIST ThermoML archive (doi:10.1016/j.jct.2013.10.025).
± gives the expanded uncertainty stated by the source.

Settings: 298.15 K, 101.33 kPa, Liquid; for viscosity: Capillary tube (Ostwald / Ubbelohde) method; for speed of sound: Sing-around technique in a fixed-path interferometer; for mass density: Vibrating tube method

| Compound | viscosity [mPa·s] | speed of sound [m/s] | mass density [kg/m3] |
| --- | --- | --- | --- |
| CCCCCCCCCCO [decan-1-ol] | 10.61 ± 0.37 | 1379.3 ± 1.6 | 826.407 ± 0.24 |
| CCCCCCCCO [octan-1-ol] | 7.446 ± 0.36 | 1347.9 ± 1.5 | 821.837 ± 0.24 |
| C1CCOC1 [tetrahydrofuran] | 0.474 | 1280.1 ± 1.5 | 882.15 ± 0.23 |
| CCCCCCO [hexan-1-ol] | 4.436 ± 0.36 | 1303.5 ± 1.5 | 815.295 ± 0.24 |
